From publication PMC12281142, “A potent phenylalkylamine disrupts mycobacterial membrane bioenergetics and augments bactericidal activity of bedaquiline” (iScience, 2025)
In brackets after ≈: the same amount, converted by molar mass. Several values for one entry are separate records, joined by “and”; a condition that tells them apart may be missing. Equal values may be shown once. Read-outs that look alike come from different tables or passages of the source.

Columns and labels:
M. bovis BCG [1] = assay: microbe, parasite or virus in culture; type: cell-based, Mycobacterium bovis BCG; details: Mycobacterium tuberculosis variant bovis BCG, BCG
Mtb H37Rv = assay: MIC by broth microdilution against Mtb H37Rv; type: cell-based, Mycobacterium tuberculosis; details: Mycobacterium tuberculosis, H37RV
Mab abscessus ATCC 19977 = assay: MIC against Mab abscessus ATCC 19977; type: cell-based, Mycobacterium abscessus subsp. abscessus; details: Mycobacteroides abscessus; for MIC50: ATCC19977, 72 h, 3 days
[2] = test system: Mab massiliense CCUG 48898-T; assay: MIC against Mab massiliense CCUG 48898-T; type: cell-based, Mycobacterium abscessus subsp. massiliense; details: Mycobacteroides abscessus; for MIC50: CCUG48898, 72 h, 3 days
[3] = test system: Mab bolletii CCUG 50184-T; assay: MIC against Mab bolletii CCUG 50184-T; type: cell-based, Mycobacterium abscessus subsp. bolletii; details: Mycobacteroides abscessus; for MIC50: CCUG50184, 72 h, 3 days
Vero E6 = assay: Cytotoxicity in Vero E6 cells; type: cell-based, African green monkey; details: Chlorocebus sabaeus, Vero C1008, 48 h, growth suppressed by 50% vs untreated
Description: (§1) To each well in a 96-well plate, 50,000 cells in 100 μL media were seeded. Vero E6 and HepG2 cells were incubated overnight in DMEM for cell adherence at 37°C and 5% CO2. The media was removed from the wells and 100 μL solution made up of fresh DMEM media (99 μL) and the test compound (1 μL from a DMSO stock solution that was […] more concentrated than the final concentration in the well) was then added to each well. DMSO content of each well was consistently kept at 0.5 %v/v. Treated plates were incubated for 48 h (5% CO2, 37°C), after which 10 μL of Celltitre 96 Aqueous One Solution was added to each well, without removal of media, and incubated for a further 3 h. Subsequently, absorbance readings were taken at 490 nm on a Tecan GENios Microplate Reader.
(§2) Cell viability was determined from the expression: Cellviability(%)={[Absorbance(cells+cpd)−Absorbance(cpd)]/[Absorbance(cells+vc)−Absorbance(vc)]}×100% where Absorbance (cells + cpd) = absorbance of wells containing cells and test compound in vehicle (media +0.5% DMSO); Absorbance (cpd) = absorbance of wells containing test compound in vehicle without cells (compound control); Absorbance (cells + vc) = absorbance of wells containing cells in vehicle (vc) only (untreated cells); Absorbance (vc) = absorbance of wells containing vehicle without cells (vehicle control). The percentage viability readings were plotted against log(concentration) on GraphPad Prism (Version 7.0, San Diego, CA) to give a sigmoidal curve, from which IC50, defined as the concentration of the compound that reduced cell viability by 50%, was obtained. At least 3 separate determinations were carried out.

HepG2 = assay: Cytotoxicity in HepG2 cells; type: cell-based, human; details: Homo sapiens, HepG2; 48 h, growth suppressed by 50% vs untreated
Description: as §1, §2

M. bovis BCG [4] = type: cell-based, Mycobacterium bovis BCG; details: 2XMIC90BCG (1.1 mM, 500 μg/mL)
[5] = test system: nonreplicating M. bovis BCG; type: cell-based, Mycobacterium bovis BCG; details: 4x MIC90BCG, 5 days, Wayne model
M. bovis BCG [6] = type: cell-based, Mycobacterium bovis BCG; details: 2x MIC90BCG, 6 h time point, cultures still viable
Mab complex = assay: MIC against Mab complex (summary over the 3 subspecies); type: cell-based, Mycobacterium abscessus; details: Mycobacteroides abscessus; range over subspecies
cat papillary muscle = details: cited from earlier work
mycobacterial growth = details: cited from earlier work
[7] = 7H9 medium (first value of cell)
[8] = CA-MHB medium (second value of cell)

Structure (SMILES): COc1ccc(CCN(C)CCCC(C#N)(c2ccc(OC)c(OC)c2)C(C)C)cc1OC (stereo not drawn) [VP, verapamil, reference compound]
- MIC50 (M. bovis BCG [1]; 120 h, read-out: MIC50 BCG With Glycerol, 7H9 broth with glycerol, 5 days): 210 µM
- MIC50 (M. bovis BCG [1]; 120 h, read-out: MIC50 BCG Without Glycerol, 7H9 broth without glycerol, 5 days): 450 µM
- MIC50 (M. bovis BCG [1]; M. bovis BCG, broth dilution, growth reduced by 50% vs untreated): 210 µM
- MIC90 (M. bovis BCG [1]; M. bovis BCG, broth dilution, growth reduced by 90% vs untreated): 550 µM
- MIC50 (M. bovis BCG [1]; read-out: MIC50 BCG, 7H9 with glycerol): 96 mg/L
- MIC50 (M. bovis BCG [1]; read-out: MIC50 BCG, 7H9 without glycerol): 205 mg/L
- MIC90 (M. bovis BCG [1]; read-out: MIC90 (Table S1), M. bovis BCG, broth dilution): 550 µM
- MIC90 (M. bovis BCG [1]; read-out: MIC90 BCG, M. bovis BCG): 250 mg/L
- MIC50 (Mtb H37Rv; 120 h, read-out: MIC50 Mtb H37Rv): 241 µM
- MIC90 (Mtb H37Rv; 120 h, second value of cell MIC50/MIC90, incubation 5 days, read-out: MIC90 Mtb H37Rv): 540 µM
- MIC50 (Mtb H37Rv; read-out: MIC50 Mtb): 110 mg/L
- MIC90 (Mtb H37Rv; read-out: MIC90 Mtb): 246 mg/L
- MIC90 (Mab abscessus ATCC 19977; ATCC19977, 7H9 broth (first value), read-out: MIC90 Mab abscessus ATCC 19977): 2400 µM (≈ 1090 µg/mL)
- MIC50 (Mab abscessus ATCC 19977; [7]): 1290 µM (≈ 586 µg/mL)
- MIC50 (Mab abscessus ATCC 19977; [8]): 1200 µM (≈ 546 µg/mL)
- MIC90 (Mab abscessus ATCC 19977; ATCC19977, Mab abscessus, read-out: MIC90 abscessus): 2400 µM and 1100 µg/mL
- MIC90 (Mab abscessus ATCC 19977; ATCC19977, camH broth (second value), read-out: MIC90 Mab abscessus ATCC 19977): > 2500 µM
- MIC90 ([2]; CCUG48898, 7H9 broth (first value)): 2250 µM (≈ 1020 µg/mL)
- MIC50 [2, 7]: 1100 µM (≈ 500 µg/mL)
- MIC50 [2, 8]: 1150 µM (≈ 523 µg/mL)
- MIC90 ([2]; CCUG48898, camH broth (second value)): > 2500 µM
- MIC90 ([3]; CCUG50184, 7H9 broth (first value)): 2200 µM (≈ 1000 µg/mL)
- MIC50 [3, 7]: 1450 µM (≈ 659 µg/mL)
- MIC50 [3, 8]: 1250 µM (≈ 568 µg/mL)
- MIC90 ([3]; CCUG50184, camH broth (second value)): > 2500 µM
- IC50 (Vero E6): 543 µM
- IC50 (HepG2): 504 µM
- time to reduce the CFU count to the detection limit (M. bovis BCG [4]): 14 days
- kill of hypoxic M. bovis BCG [5]: 10^2 fold
- membrane depolarization (M. bovis BCG [6]): depolarization was evident
- MIC50 (Mab complex): 500 to 564 mg/L (≈ 1100 to 1240 µM)
- ED50 (concentration to reduce maximal contractility of the papillary muscle by 50%) (cat papillary muscle): 3.5 µM
- concentration to inhibit mycobacterial growth (mycobacterial growth): ~500 μM and ~227 μg/mL
